In US9453031B2, “Chemical entities” (Fundación Centro Nacional de Investigaciones Oncológicas …, priority 2013, dated 2016):

Tests used:
DNA-PK = DNA-PK (Homo sapiens (Human), UniProt P78527); assay: DNAPK activity assay (ADP Hunter Plus); format: biochemical; conditions: 75 μM ATP
Experimental: The kinase activity was measured by using the commercial ADP Hunter™ Plus assay available from DiscoveRx (#90-0083), which is a homogeneous assay to measure the accumulation of ADP, a universal product of kinase activity. The enzyme, DNA-PK was purchased from Promega (#V5811). The assay was done following the manufacturer recommendations with slight modifications: Mainly the kinase buffer was replace by 15 mM HEPES, pH 7.5, 10 mM MgCl2, 20 mM NaCl, 1 mM EGTA, 0.1 mg/mL BGG, 0.02% Tween 20. The DNA-PK was assayed in a titration experiment to determine the optimal protein concentration for the inhibition assay. To calculate the […] of the Compounds, serial 1:3 dilutions of the compounds were added to the enzyme at a fixed concentration (2 U/μL). The enzyme was preincubated with the inhibitor and 200 μM DNA substrate and then ATP was added to a final 75 μM concentration. Reaction was carried out for 1 hour at 37° C. Reagent A and B were sequentially added to the wells and plates were incubated for 30 min at RT. Fluorescence counts were read in a EnVision instrument (Perkin Elmer) with the recommended settings (550 and 590 nm as excitation and emission wavelengths, respectively).

mTOR = mTOR (Homo sapiens (Human), UniProt P42345); assay: mTOR activity assay (LanthaScreen); format: biochemical
Experimental: The enzymatic mTOR activity was measured using a LanthaScreen™ kinase activity assay (Invitrogen). The enzyme was purchased from Invitrogen (PV4754), as well as the GFP-labelled substrate (4EBP1-GFP; PV4759) and the Tb-antip4EBP1(pThr46) antibody (PV4757). The assay was performed in 50 Mm HEPES buffer, pH 7.5, containing 1.5 mM MnCl2, 10 mM MgCl2, 1 mM EGTA, 2.5 mM DTT and 0.01% Tween-20. The concentration of the assay components were the following: 0.24 nM mTOR kinase, 400 nM 4EBP1-GFP, […] and serial dilutions of the compound (inhibitor) to be evaluated. After 1 h incubation at room temperature, 20 mM EDTA was used to stop the reaction and terbium-labelled antibody (4 nM) added to detect phosphorylated product. The antibody associates with the phosphorylated product resulting in an increased TR-FRET value. The TR-FRET value (a dimensionless number) was calculated as the ratio of the acceptor signal (GFP, emission at 520 nm) to the donor signal (terbium, emission at 495 nm).

PI3K (p110α/p85α) = PI3K (p110α/p85α) (Homo sapiens (Human), UniProt P42336); assay: PI3K alpha activity assay (ADP Hunter Plus); format: biochemical; conditions: 50 μM ATP, 30 μM PIP2; read-out: PI3Kα IC50
Chain of PI3K (p110α/p85α) (P42336 whole entry): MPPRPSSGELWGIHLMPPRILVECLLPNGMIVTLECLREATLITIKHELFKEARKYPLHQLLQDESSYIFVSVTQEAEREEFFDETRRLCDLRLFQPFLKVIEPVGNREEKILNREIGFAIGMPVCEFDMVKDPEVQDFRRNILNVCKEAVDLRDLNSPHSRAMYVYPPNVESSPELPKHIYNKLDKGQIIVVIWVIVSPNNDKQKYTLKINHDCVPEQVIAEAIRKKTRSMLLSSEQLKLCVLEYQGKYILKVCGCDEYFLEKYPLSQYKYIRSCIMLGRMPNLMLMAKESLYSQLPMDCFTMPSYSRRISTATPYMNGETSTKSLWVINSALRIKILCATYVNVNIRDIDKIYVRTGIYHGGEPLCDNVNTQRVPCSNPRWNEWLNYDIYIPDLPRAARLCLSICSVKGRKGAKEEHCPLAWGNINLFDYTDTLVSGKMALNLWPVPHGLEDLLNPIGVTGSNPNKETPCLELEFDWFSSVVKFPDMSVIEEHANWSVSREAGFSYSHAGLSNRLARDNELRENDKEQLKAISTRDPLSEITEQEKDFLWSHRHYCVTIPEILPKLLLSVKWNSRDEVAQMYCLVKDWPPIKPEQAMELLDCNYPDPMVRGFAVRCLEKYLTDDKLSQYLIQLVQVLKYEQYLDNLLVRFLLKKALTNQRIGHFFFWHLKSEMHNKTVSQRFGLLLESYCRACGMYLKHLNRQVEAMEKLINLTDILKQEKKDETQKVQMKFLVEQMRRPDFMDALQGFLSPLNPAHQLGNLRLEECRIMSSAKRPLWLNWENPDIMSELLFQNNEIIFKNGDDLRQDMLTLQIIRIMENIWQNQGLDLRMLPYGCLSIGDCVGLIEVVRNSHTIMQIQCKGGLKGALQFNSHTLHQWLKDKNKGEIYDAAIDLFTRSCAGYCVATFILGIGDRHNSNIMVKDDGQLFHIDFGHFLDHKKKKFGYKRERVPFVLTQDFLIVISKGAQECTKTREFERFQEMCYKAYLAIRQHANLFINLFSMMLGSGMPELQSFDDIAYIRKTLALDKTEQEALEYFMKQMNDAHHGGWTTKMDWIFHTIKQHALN
Chain of PI3K (p110α/p85α) (P27986 whole entry partner): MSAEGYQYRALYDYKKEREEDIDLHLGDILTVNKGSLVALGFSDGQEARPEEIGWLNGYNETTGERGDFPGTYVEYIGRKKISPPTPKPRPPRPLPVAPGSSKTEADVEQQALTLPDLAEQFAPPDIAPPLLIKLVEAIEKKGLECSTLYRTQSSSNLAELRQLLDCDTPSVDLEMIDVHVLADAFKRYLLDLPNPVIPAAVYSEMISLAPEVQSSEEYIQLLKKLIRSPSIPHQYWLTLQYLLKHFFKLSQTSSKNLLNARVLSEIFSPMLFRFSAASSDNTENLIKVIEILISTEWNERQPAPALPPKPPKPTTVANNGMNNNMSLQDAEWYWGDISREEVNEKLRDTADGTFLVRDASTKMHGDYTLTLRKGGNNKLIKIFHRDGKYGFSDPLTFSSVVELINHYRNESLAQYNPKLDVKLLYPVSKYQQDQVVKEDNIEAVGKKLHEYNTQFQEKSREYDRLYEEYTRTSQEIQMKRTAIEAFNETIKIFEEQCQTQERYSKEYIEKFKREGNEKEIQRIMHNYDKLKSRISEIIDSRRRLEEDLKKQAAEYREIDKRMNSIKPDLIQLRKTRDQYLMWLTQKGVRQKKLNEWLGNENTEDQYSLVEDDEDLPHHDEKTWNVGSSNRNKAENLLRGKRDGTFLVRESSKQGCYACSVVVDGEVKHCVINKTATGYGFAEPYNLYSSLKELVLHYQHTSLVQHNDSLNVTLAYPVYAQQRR
Experimental: The kinase activity was measured by using the commercial ADP Hunter™ Plus assay available from DiscoveRx (#33-016), which is a homogeneous assay to measure the accumulation of ADP, a universal product of kinase activity. […] The reaction was carried out for 1 hour at 25° C. Reagent A and B were sequentially added to the wells and plates were incubated for 30 min at 37° C. Fluorescence counts were read in a Victor instrument (Perkin Elmer) with the recommended settings (544 and 580 nm as excitation and emission wavelengths, respectively).

ATR = ATR (Homo sapiens (Human), UniProt Q13535); assay: Cellular ATR inhibition, western blot of CHK1(S345) phosphorylation in hydroxyurea treated cells; format: cell-based; conditions: HT29 cells
Chain of ATR (Q13535 whole entry): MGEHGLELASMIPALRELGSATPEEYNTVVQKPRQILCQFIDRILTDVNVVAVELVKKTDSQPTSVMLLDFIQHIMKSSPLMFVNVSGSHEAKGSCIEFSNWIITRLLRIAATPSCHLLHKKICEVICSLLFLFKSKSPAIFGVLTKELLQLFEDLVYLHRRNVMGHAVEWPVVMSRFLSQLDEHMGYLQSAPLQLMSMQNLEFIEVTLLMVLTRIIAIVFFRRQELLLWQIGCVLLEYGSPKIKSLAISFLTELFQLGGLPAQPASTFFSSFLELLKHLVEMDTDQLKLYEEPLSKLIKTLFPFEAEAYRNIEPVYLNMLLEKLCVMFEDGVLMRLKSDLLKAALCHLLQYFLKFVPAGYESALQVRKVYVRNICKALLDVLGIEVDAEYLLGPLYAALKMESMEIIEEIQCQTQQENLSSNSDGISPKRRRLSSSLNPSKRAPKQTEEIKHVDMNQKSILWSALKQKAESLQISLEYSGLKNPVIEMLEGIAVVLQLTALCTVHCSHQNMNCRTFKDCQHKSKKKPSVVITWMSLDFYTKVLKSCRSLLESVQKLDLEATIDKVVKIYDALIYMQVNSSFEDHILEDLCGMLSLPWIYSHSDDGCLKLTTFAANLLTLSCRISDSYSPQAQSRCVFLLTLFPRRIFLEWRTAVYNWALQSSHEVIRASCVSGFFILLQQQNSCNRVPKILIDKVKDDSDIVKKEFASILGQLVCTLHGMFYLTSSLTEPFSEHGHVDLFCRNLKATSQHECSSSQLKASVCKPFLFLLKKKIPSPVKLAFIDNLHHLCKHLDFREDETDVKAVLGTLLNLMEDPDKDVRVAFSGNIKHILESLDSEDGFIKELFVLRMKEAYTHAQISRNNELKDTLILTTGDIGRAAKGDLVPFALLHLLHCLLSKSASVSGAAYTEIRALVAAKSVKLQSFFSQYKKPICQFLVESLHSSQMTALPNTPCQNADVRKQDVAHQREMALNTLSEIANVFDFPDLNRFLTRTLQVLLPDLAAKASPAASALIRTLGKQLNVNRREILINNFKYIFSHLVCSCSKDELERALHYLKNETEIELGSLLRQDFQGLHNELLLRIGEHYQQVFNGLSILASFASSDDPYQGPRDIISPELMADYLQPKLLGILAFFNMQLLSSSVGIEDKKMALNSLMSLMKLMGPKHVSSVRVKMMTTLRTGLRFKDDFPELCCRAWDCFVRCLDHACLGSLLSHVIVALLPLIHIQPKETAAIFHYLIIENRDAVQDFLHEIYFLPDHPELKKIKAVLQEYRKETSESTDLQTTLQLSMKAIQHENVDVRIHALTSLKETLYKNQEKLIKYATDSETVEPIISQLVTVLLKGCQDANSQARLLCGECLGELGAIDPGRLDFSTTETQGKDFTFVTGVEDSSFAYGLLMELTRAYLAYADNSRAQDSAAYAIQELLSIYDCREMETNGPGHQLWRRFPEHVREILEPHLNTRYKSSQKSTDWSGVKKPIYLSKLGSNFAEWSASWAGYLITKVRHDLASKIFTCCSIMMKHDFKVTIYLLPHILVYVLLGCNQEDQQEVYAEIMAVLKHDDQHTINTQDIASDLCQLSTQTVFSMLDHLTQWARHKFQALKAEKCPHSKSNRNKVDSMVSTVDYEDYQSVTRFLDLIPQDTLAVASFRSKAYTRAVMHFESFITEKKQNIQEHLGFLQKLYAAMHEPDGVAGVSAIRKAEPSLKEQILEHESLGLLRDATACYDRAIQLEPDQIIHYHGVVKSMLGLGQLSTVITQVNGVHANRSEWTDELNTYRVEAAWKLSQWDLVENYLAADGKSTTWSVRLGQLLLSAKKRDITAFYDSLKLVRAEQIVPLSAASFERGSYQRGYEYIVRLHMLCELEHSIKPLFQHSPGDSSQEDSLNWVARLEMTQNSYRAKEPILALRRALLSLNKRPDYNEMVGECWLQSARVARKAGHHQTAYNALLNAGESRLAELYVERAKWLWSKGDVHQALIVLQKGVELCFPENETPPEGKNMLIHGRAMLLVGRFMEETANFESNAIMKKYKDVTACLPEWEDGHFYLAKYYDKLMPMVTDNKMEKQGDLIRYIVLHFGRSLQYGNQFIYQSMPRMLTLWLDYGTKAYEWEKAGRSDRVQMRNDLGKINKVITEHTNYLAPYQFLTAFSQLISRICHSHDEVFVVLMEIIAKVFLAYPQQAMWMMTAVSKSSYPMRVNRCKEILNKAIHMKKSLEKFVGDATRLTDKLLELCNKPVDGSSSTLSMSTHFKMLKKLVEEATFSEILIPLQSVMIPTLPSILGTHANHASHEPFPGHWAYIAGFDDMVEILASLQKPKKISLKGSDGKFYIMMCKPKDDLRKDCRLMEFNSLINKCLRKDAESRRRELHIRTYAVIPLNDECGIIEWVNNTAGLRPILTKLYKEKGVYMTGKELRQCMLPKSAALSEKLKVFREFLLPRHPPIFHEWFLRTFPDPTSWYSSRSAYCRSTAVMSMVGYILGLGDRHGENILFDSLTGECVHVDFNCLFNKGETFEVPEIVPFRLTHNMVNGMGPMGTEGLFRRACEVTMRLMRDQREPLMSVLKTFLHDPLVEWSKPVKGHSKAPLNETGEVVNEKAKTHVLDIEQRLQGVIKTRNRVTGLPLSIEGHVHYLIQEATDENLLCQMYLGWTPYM
Experimental: In addition to the selective system described above, Example compounds presented here were screened for their ability to inhibit intracellular ATR using a western blot assay to detect phosphorylation of the ATR substrate CHK1(S345) in hydroxyurea treated cells. HT29 cells are plated at 500,000 cells per well in 6-well plates in RPMI media (Sigma R6504) supplemented with 10% foetal bovine serum (Sigma F7524), Penicillin/Streptomycin solution diluted 1:100 (Gibco 15070-063), and fungizone (Gibco, 15290-018), and allowed to adhere overnight at 37° C. in 5% CO2. Compounds are then added to the cell media from a final concentration of 10 μM in 3-fold serial dilutions and the cells are incubated at 37° C. in 5% CO2. After 15 min, hydroxyurea (Sigma H8627) is added to a final concentration of 2.5 mM. After 30 min of treatment with hydroxyurea, the cells are washed in PBS, lysed adding 50 μl of in protein lysis buffer (50 mM Tris pH 7.5, 150 mM NaCl, 1% IGEPAL CO-630 (Sigma, Ref. 542334-100G-A), Phospho Stop (Roche, Ref. 04906837001) and Complete Mini EDTA free (Roche, Ref. 11836170001)). The protein content of the lysates was determined by the modified method of Bradford (Sigma, Ref. B6916). The proteins were resolved by SDS-PAGE and transferred to nitrocellulose membrane (VWR International Eurolab, Ref. 732-4007). The membranes were incubated overnight at 4° C. with antibodies specific for total CHK1 (Santa Cruz Biotechnology, sc-8404), phosphoserine-345 CHK1 (Cell Signaling Technology #2348) they were washed and then incubated with IRDye800 conjugated anti-mouse (Pierce/Cultek, 35521) and Alexa Fluor 680 goat anti-rabbit IgG secondary antibodies (Invitrogen, A21076). The bands were visualized and quantified using an Odyssey infrared imaging system (Li-Cor Biosciences). The percentage of phosphorylated CHK1 vs total CHK1 in cells treated with hydroxyurea was taken as hundred percent of phosphorylation. The percentage of CHK1 phosphorylation is finally plotted against concentration for each compound and EC50s for intracellular ATR inhibition are calculated using ActivityBase from IDBS.

Row | SMILES | IC50 (DNA-PK) | IC50 (mTOR) | IC50 (PI3K (p110α/p85α)) | EC50 (ATR; hydroxyurea 2.5 mM) | EC50 (ATR; hydroxyurea […])
1 | CS(=O)(=O)C1(c2nc(-c3cccc4[nH]ccc34)nc3c2OCC[C@H]2COCCN32)CCOCC1 [Example 23] | 6.37 µM | 10 µM | 50 µM | 0.1 to 1 µM | 
2 | CC(C)(c1nc(-c2c(F)ccc3[nH]ccc23)nc2c1OC[C@H]1COCCN21)S(C)(=O)=O [Example 26] | 10 µM | 10 µM | 2.7 µM | > 1 µM | 
3 | CS(=O)(=O)C1(c2nc(-c3cc(F)cc4[nH]ccc34)nc3c2OC[C@@H]2COCCN32)CCOCC1 [Example 28] | 25 µM | 0.785 µM | 4.7 µM | < 0.1 µM | 
4 | COc1cc(-c2nc3c(c(C4(S(C)(=O)=O)CCOCC4)n2)OC[C@@H]2COCCN32)c2cc[nH]c2c1 [Example 29] | 25 µM | 0.435 µM | 3.8 µM | < 0.1 µM | 
5 | CS(=O)(=O)C1(c2nc(-c3ccnc4[nH]ccc34)nc3c2OC[C@@H]2COCCN32)CCOCC1 [Example 30] | 25 µM | 4.68 µM | 2.5 µM | 0.1 to 1 µM | 
6 | CC(C)(O)c1nc(-c2cccc3[nH]ccc23)nc2c1OC[C@@H]1COCCN21 [Example 44] | 3.06 µM | 0.044 µM | 1.18 µM | 0.1 to 1 µM | 
7 | COc1cc(-c2nc3c(c(C(C)(C)O)n2)OC[C@@H]2COCCN32)c2cc[nH]c2c1 [Example 46] | 2.82 µM | 0.038 µM | 0.48 µM | 0.1 to 1 µM | 
8 | CC(C)(c1nc(-c2cccc3[nH]ccc23)nc2c1OC[C@@H]1COCCN21)S(=O)(=O)C1CC1 [Example 61] | 10 µM | 0.228 µM | 3.22 µM | 0.1 to 1 µM | 
9 | CNc1nc2ccccc2n1-c1nc2c(c(C(C)(C)S(C)(=O)=O)n1)OCC[C@@H]1COCCN21 [Example 62] | 10 µM | 6.6 µM | 16.2 µM | 0.1 to 1 µM | 
10 | CNc1nc2ccccc2n1-c1nc2c(c(C3(S(C)(=O)=O)CC3)n1)OC[C@@H]1COCCN21 [Example 66] | 2.41 µM | 0.854 µM | 7.17 µM | 0.1 to 1 µM | 
11 | CC(C)(c1nc(-n2c(N)nc3ccccc32)nc2c1OC[C@@H]1COCCN21)S(C)(=O)=O [Example 70] | 0.741 µM | 0.226 µM | 0.87 µM |  | 0.1 to 1 µM
12 | CC(C)(c1nc(-c2cc(F)cc3[nH]ccc23)nc2c1OC[C@@H]1COCCN21)S(C)(=O)=O [Example 71] | 10 µM | 0.0993 µM | 1.08 µM | < 0.1 µM | 
13 | COc1cc(-c2nc3c(c(C(C)(C)S(C)(=O)=O)n2)OC[C@@H]2COCCN32)c2cc[nH]c2c1 [Example 72] | 1.6 µM | 0.0453 µM | 0.82 µM | 0.1 to 1 µM | 
14 | CC(C)(c1nc(-n2c(N3CCOCC3)nc3ccccc32)nc2c1OC[C@@H]1COCCN21)S(C)(=O)=O [Example 73] | 10 µM | 10 µM | 50 µM |  | > 1 µM
15 | CS(=O)(=O)C1(c2nc(-c3cc(F)cc4[nH]ccc34)nc3c2OC[C@@H]2COCCN32)CC1 [Example 74] | 0.989 µM | 0.152 µM | 2.24 µM | 0.1 to 1 µM | 
16 | COc1cc(-c2nc3c(c(C4(S(C)(=O)=O)CC4)n2)OC[C@@H]2COCCN32)c2cc[nH]c2c1 [Example 75] | 1.83 µM | 0.093 µM | 2.52 µM | 0.1 to 1 µM | 
17 | CS(=O)(=O)C1(c2nc(-c3cc(F)cc4[nH]ccc34)nc3c2OC[C@@H]2COCCN32)CCC1 [Example 77] | 10 µM | > 10 µM | 5.36 µM | < 0.1 µM | 
18 | CNc1nc2cc(Cl)ccc2n1-c1nc2c(c(C(C)(C)S(C)(=O)=O)n1)OC[C@@H]1COCCN21 [Example 80] | 10 µM | 0.501 µM | 13.1 µM |  | > 1 µM
19 | CNc1nc2ccc(Cl)cc2n1-c1nc2c(c(C(C)(C)S(C)(=O)=O)n1)OC[C@@H]1COCCN21 [Example 81] | 10 µM | 5.55 µM | 50 µM |  | > 1 µM
20 | CNc1nc2cc(F)ccc2n1-c1nc2c(c(C(C)(C)S(C)(=O)=O)n1)OC[C@@H]1COCCN21 [Example 82] | 10 µM | 1.59 µM | 5.6 µM |  | 0.1 to 1 µM
21 | CNc1nc2ccc(F)cc2n1-c1nc2c(c(C(C)(C)S(C)(=O)=O)n1)OC[C@@H]1COCCN21 [Example 83] | 3.11 µM | 2.47 µM | 12.2 µM |  | 0.1 to 1 µM
22 | CNc1nc2cc(Cl)ccc2n1-c1nc2c(c(C3(S(C)(=O)=O)CC3)n1)OC[C@@H]1COCCN21 [Example 86] | 10 µM | 3.41 µM | 50 µM |  | > 1 µM
23 | CNc1nc2ccc(Cl)cc2n1-c1nc2c(c(C3(S(C)(=O)=O)CC3)n1)OC[C@@H]1COCCN21 [Example 87] | 0.21 µM | 10 µM | 50 µM |  | > 1 µM
24 | CNc1nc2ccccc2n1-c1nc2c(c(C3(S(C)(=O)=O)CCC3)n1)OC[C@@H]1COCCN21 [Example 92] | 6.15 µM | 1.24 µM | 2.75 µM | < 0.1 µM | 
25 | Cc1cc2c(-c3nc4c(c(C5(S(C)(=O)=O)CCC5)n3)OC[C@@H]3COCCN43)cccc2[nH]1 [Example 93] | 10 µM | 0.117 µM | 7.44 µM | 0.1 to 1 µM | 
26 | CNc1nc2cc(F)ccc2n1-c1nc2c(c(C3(S(C)(=O)=O)CCC3)n1)OC[C@@H]1COCCN21 [Example 96] | 10 µM | 6.08 µM | 50 µM |  | 0.1 to 1 µM
27 | CNc1nc2ccc(F)cc2n1-c1nc2c(c(C3(S(C)(=O)=O)CCC3)n1)OC[C@@H]1COCCN21 [Example 97] | 6.8 µM | 6.8 µM | 50 µM |  | 0.1 to 1 µM
28 | CC(C)(c1nc(-c2cc(C(F)(F)F)cc3[nH]ccc23)nc2c1OC[C@@H]1COCCN21)S(C)(=O)=O [Example 101] | 10 µM | 0.227 µM | 12.6 µM | 0.1 to 1 µM | 
29 | CC(C)(c1nc(-c2ccc(F)c3[nH]ccc23)nc2c1OC[C@@H]1COCCN21)S(C)(=O)=O [Example 102] | 0.1 µM | 1.82 µM | 50 µM | > 1 µM | 
30 | Cc1cc2c(-c3nc4c(c(C(C)(C)S(C)(=O)=O)n3)OC[C@@H]3COCCN43)cccc2[nH]1 [Example 103] | 10 µM | 0.058 µM | 3.16 µM | 0.1 to 1 µM | 
